In PMC11726654, “Discovery of MDI-114215: A Potent and Selective LIMK Inhibitor To Treat Fragile X Syndrome” (Journal of Medicinal Chemistry, 2024):

How the values were obtained:
LIMK1 = LIMK1 (Homo sapiens, UniProt P53667); experiment: RapidFire mass spectrometry kinase assay (cofilin phosphorylation); format: biochemical; details: non-phosphorylated LIMK1; mean ± SEM; read-out: Enzymatic (RapidFire) pIC50 LIMK1 (converted)
LIMK2 = LIMK2 (Homo sapiens, UniProt P53671); experiment: as above; format: biochemical; details: non-phosphorylated LIMK2; mean ± SEM; read-out: Enzymatic (RapidFire) pIC50 LIMK2 (converted)
Microsomal stability [1] = details: for microsomal CLint at 2 μM / microsomal CLint at 0.5 h, 2 µM: human, microsomes, pH 7.4; for Microsomal CLint Human: human microsomes, 2 μM compound
Microsomal stability [2] = details: for Microsomal CLint Rat: rat microsomes, 2 μM compound

Sequence of LIMK2 (P53671 whole entry): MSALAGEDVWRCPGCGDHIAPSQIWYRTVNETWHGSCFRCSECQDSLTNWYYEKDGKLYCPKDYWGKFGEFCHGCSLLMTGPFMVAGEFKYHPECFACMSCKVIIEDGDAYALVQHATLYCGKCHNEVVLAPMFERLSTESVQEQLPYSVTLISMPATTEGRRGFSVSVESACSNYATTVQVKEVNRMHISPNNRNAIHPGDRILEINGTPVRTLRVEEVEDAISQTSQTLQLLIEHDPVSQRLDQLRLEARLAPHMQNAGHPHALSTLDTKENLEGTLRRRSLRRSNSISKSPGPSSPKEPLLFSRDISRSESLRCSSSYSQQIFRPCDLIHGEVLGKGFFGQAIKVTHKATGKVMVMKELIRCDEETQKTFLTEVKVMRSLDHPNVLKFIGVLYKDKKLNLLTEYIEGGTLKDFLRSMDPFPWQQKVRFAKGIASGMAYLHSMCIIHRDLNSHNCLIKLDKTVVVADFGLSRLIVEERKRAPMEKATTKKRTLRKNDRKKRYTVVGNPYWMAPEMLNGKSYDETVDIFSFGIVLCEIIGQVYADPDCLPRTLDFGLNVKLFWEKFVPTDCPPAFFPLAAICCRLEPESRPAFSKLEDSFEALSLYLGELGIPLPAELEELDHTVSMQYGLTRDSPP
Sequence of LIMK1 (P53667 whole entry): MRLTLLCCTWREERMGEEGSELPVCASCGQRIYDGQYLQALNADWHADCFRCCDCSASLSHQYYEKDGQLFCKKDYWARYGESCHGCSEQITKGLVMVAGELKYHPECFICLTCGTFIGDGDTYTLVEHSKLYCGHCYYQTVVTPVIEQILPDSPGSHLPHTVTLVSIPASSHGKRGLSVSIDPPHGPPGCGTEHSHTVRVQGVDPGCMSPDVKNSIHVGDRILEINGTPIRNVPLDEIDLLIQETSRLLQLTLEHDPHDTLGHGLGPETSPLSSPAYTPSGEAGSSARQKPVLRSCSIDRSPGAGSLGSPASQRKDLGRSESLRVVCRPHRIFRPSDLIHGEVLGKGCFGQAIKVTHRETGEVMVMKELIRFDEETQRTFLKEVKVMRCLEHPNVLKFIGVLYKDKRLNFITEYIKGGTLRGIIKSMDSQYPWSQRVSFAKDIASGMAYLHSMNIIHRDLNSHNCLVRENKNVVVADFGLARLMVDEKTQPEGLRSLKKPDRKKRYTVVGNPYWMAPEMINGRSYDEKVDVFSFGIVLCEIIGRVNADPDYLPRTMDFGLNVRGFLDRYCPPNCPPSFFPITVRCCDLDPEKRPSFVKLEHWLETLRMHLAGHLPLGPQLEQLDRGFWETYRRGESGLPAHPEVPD

| Structure (SMILES) | IC50 (LIMK1) [nM] | IC50 (LIMK2) [nM] | microsomal CLint at 2 μM (Microsomal stability [1]) [µL/min/mg] | microsomal CLint at 2 μM (Microsomal stability [2]; rat, microsomes, pH 7.4) [µL/min/mg] | Microsomal CLint Rat (Microsomal stability [2]) | Microsomal CLint Human (Microsomal stability [1]) | microsomal CLint at 0.5 h, 2 µM (Microsomal stability [1]) [µL/min/mg] | microsomal CLint at 0.5 h, 2 µM (Microsomal stability [2]; rat, microsomes, pH 7.4) [µL/min/mg] |
| --- | --- | --- | --- | --- | --- | --- | --- | --- |
| CCCCN(Cc1ccccc1)C(=O)c1ccc(S(=O)(=O)Nc2ccccc2)cc1F [Compound 21, N-Benzyl-N-butyl-2-fluoro-4-(phenylsulfamoyl)benzamide] | 407 | 30.2 | – | – | – | – | – | – |
| CCCCN(Cc1ccccc1)C(=O)c1ccc(S(=O)(=O)Nc2ccccc2)cc1C [Compound 22, N-Benzyl-N-butyl-2-methyl-4-(phenylsulfamoyl)benzamide] | 2140 | 148 | – | – | – | – | – | – |
| CCCCN(Cc1ccccc1)C(=O)c1ccc(S(=O)(=O)Nc2ccccc2)cn1 [Compound 23, N-Benzyl-N-butyl-5-(phenylsulfamoyl)pyridine-2-carboxamide] | 1350 | 166 | – | – | – | – | – | – |
| CCCCN(Cc1ccccc1)C(=O)c1cnc(S(=O)(=O)Nc2ccccc2)nc1 [Compound 24, N-Benzyl-N-butyl-2-(phenylsulfamoyl)pyrimidine-5-carboxamide] | 891 | 1740 | – | – | – | – | – | – |
| CCCCN(Cc1ccccc1)C(=O)c1ccc(S(=O)(=O)Cc2ccccc2)cc1 [Compound 29, N-Benzyl-4-benzylsulfonyl-N-butyl-benzamide] | > 10000 | 468 | – | – | – | – | – | – |
| CCCCN(Cc1ccccc1)C(=O)c1coc(S(=O)(=O)Nc2ccccc2)c1 [Compound 30, N-Benzyl-N-butyl-5-(phenylsulfamoyl)furan-3-carboxamide] | 6920 | 933 | – | – | – | – | – | – |
| CCCCN(Cc1ccccc1)C(=O)c1ccc(S(=O)(=O)NC)cc1 [Compound 34, N-Benzyl-N-butyl-4-(N-methylsulfamoyl)benzamide] | > 10000 | > 10000 | – | – | – | – | – | – |
| CCCCN(Cc1ccccc1)C(=O)c1ccc(S(=O)(=O)Nc2ccncc2)cc1 [Compound 35, N-Benzyl-N-butyl-4-(N-(pyridin-4-yl)sulfamoyl)benzamide] | > 10000 | > 10000 | – | – | – | – | – | – |
| CCCCN(Cc1ccccc1)C(=O)c1ccc(S(=O)(=O)Nc2cnoc2)cc1 [Compound 36, N-Benzyl-N-butyl-4-(isoxazol-4-ylsulfamoyl)benzamide] | > 10000 | 6610 | – | – | – | – | – | – |
| CCCCN(Cc1ccccc1)C(=O)c1ccc(S(=O)(=O)NC2CCC2)cc1 [Compound 37, N-Benzyl-N-butyl-4-(N-cyclobutylsulfamoyl)benzamide] | 4470 | 372 | – | – | – | – | – | – |
| CCCCN(Cc1ccccc1)C(=O)c1ccc(S(=O)(=O)NC2COC2)cc1 [Compound 38, N-Benzyl-N-butyl-4-(N-(oxetan-3-yl)sulfamoyl)benzamide] | > 10000 | > 10000 | – | – | – | – | – | – |
| CCCCN(Cc1ccc(F)cc1)C(=O)c1ccc(S(=O)(=O)Nc2ccccc2)cc1 [Compound 39, N-Butyl-N-(4-fluorobenzyl)-4-(N-phenylsulfamoyl)benzamide] | 195 | – | 409 | 942 | – | – | – | – |
| CCCCN(Cc1ccc(OC)cc1)C(=O)c1ccc(S(=O)(=O)Nc2ccccc2)cc1 [Compound 40, N-Butyl-N-(4-methoxybenzyl)-4-(N-phenylsulfamoyl)benzamide] | 447 | 39.8 | 280 | 978 | – | – | – | – |
| CCCCN(Cc1cccc(OC)c1)C(=O)c1ccc(S(=O)(=O)Nc2ccccc2)cc1 [Compound 41, N-Butyl-N-(3-methoxybenzyl)-4-(N-phenylsulfamoyl)benzamide] | 1620 | 224 | 556 | 783 | – | – | – | – |
| CCCCN(Cc1ccccc1OC)C(=O)c1ccc(S(=O)(=O)Nc2ccccc2)cc1 [Compound 42, N-Butyl-N-(2-methoxybenzyl)-4-(N-phenylsulfamoyl)benzamide] | 2570 | 1170 | 812 | 827 | – | – | – | – |
| CCCCN(Cc1ccncc1)C(=O)c1ccc(S(=O)(=O)Nc2ccccc2)cc1 [Compound 43, N-Butyl-4-(N-phenylsulfamoyl)-N-(pyridin-4-ylmethyl)benzamide] | 977 | 19.1 | 144 | 484 | – | – | – | – |
| CCCCN(Cc1cccnc1)C(=O)c1ccc(S(=O)(=O)Nc2ccccc2)cc1 [Compound 44, N-Butyl-4-(N-phenylsulfamoyl)-N-(pyridin-3-ylmethyl)benzamide] | 8130 | 1510 | 234 | – | Rapid | – | – | – |
| CCCCN(Cc1ccccn1)C(=O)c1ccc(S(=O)(=O)Nc2ccccc2)cc1 [Compound 45, N-Butyl-4-(N-phenylsulfamoyl)-N-(pyridin-2-ylmethyl)benzamide] | 1290 | 51.3 | 256 | – | Rapid | – | – | – |

| Structure (SMILES) | IC50 (LIMK1) [nM] | IC50 (LIMK2) [nM] | microsomal CLint at 2 μM (Microsomal stability [1]) [µL/min/mg] | microsomal CLint at 2 μM (Microsomal stability [2]; rat, microsomes, pH 7.4) [µL/min/mg] | Microsomal CLint Rat (Microsomal stability [2]) | Microsomal CLint Human (Microsomal stability [1]) | microsomal CLint at 0.5 h, 2 µM (Microsomal stability [1]) [µL/min/mg] | microsomal CLint at 0.5 h, 2 µM (Microsomal stability [2]; rat, microsomes, pH 7.4) [µL/min/mg] |
| --- | --- | --- | --- | --- | --- | --- | --- | --- |
| CCCCN(Cc1ccco1)C(=O)c1ccc(S(=O)(=O)Nc2ccccc2)cc1 [Compound 46, N-Butyl-N-(furan-2-ylmethyl)-4-(N-phenylsulfamoyl)benzamide] | 347 | – | – | – | Rapid | Rapid | – | – |
| CCCCN(CC1CCCO1)C(=O)c1ccc(S(=O)(=O)Nc2ccccc2)cc1 (stereo not drawn) [Compound 47, N-Butyl-4-(N-phenylsulfamoyl)-N-((tetrahydrofuran-2-yl)methyl)benzamide] | > 10000 | > 10000 | 427 | – | Rapid | – | – | – |
| CCCCN(Cc1ccc(CCC(=O)O)cc1)C(=O)c1ccc(S(=O)(=O)Nc2ccccc2)cc1 [Compound 48, 3-(4-((N-Butyl-4-(N-phenylsulfamoyl)benzamido)methyl)phenyl)propanoic acid] | 166 | 20.9 | 15 | 18 | – | – | – | – |
| CCCCN(Cc1ccc(N2CCNCC2)cc1)C(=O)c1ccc(S(=O)(=O)Nc2ccccc2)cc1 [Compound 49, N-Butyl-4-(N-phenylsulfamoyl)-N-(4-(piperazin-1-yl)benzyl)benzamide] | > 10000 | 2290 | 50 | 56 | – | – | – | – |
| CCN(Cc1ccccc1)C(=O)c1ccc(S(=O)(=O)Nc2ccccc2)cc1 [Compound 52, N-Benzyl-N-ethyl-4-(N-phenylsulfamoyl)benzamide] | – | – | 720 | – | Rapid | – | – | – |
| O=C(c1ccc(S(=O)(=O)Nc2ccccc2)cc1)N(CCO)Cc1ccccc1 [Compound 53, N-Benzyl-N-(2-hydroxyethyl)-4-(N-phenylsulfamoyl)benzamide] | 209 | – | 76 | – | Rapid | – | – | – |
| O=C(c1ccc(S(=O)(=O)Nc2ccccc2)cc1)N(CCCn1ccnc1)Cc1ccccc1 [Compound 56, N-Benzyl-N-(3-imidazol-1-ylpropyl)-4-(phenylsulfamoyl)benzamide] | 347 | 18.2 | 80 | 158 | – | – | – | – |
| O=C(c1ccc(S(=O)(=O)Nc2ccccc2)cc1)N(Cc1ccccc1)CC1CC1 [Compound 57, N-Benzyl-N-(cyclopropylmethyl)-4-(phenylsulfamoyl)benzamide] | – | – | – | – | Rapid | – | 495 | – |
| O=C(c1ccc(S(=O)(=O)Nc2ccccc2)cc1)N(Cc1ccccc1)C1CC1 [Compound 58, N-Benzyl-N-cyclopropyl-4-(phenylsulfamoyl)benzamide] | 1070 | 46.8 | 396 | – | Rapid | – | – | – |
| CC(C)CN(Cc1ccccc1)C(=O)c1ccc(S(=O)(=O)Nc2ccccc2)cc1 [Compound 59, N-Benzyl-N-isobutyl-4-(phenylsulfamoyl)benzamide] | 1020 | 20.9 | – | – | Rapid | Rapid | – | – |
| O=C(c1ccc(S(=O)(=O)Nc2ccccc2)cc1)N(Cc1ccccc1)CC1(Cn2ccnc2)CC1 [Compound 60, N-Benzyl-N-[[1-(imidazol-1-ylmethyl)cyclopropyl]methyl]-4-(phenylsulfamoyl)benzamide] | 407 | 19.1 | 109 | 395 | – | – | – | – |
| O=C(c1ccc(S(=O)(=O)Nc2ccccc2)cc1)N(Cc1ccc2[nH]ccc2c1)CC1CC1 [Compound 61, N-(Cyclopropylmethyl)-N-(1H-indol-5-ylmethyl)-4-(phenylsulfamoyl)benzamide] | 11 | 11 | 288 | 802 | – | – | – | – |
| O=C(c1ccc(S(=O)(=O)Nc2ccccc2)cc1)N(Cc1ccc2ncoc2c1)CC1CC1 [Compound 62, N-(1,3-Benzoxazol-6-ylmethyl)-N-(cyclopropylmethyl)-4-(phenylsulfamoyl)benzamide] | 95.5 | 6.46 | 263 | – | Rapid | – | – | – |
| O=C(c1ccc(S(=O)(=O)Nc2ccccc2)cc1)N(Cc1ccc(Br)cn1)CC1CC1 [Compound 63, N-[(5-Bromo-2-pyridyl)methyl]-N-(cyclopropylmethyl)-4-(phenylsulfamoyl)benzamide] | 19.1 | 25.7 | 307 | – | Rapid | – | – | – |
| Nc1ccc(CN(CC2CC2)C(=O)c2ccc(S(=O)(=O)Nc3ccccc3)cc2)nc1 [Compound 72, N-[(5-Amino-2-pyridyl)methyl]-N-(cyclopropylmethyl)-4-(phenylsulfamoyl)benzamide] | – | – | – | – | – | – | 36 | 431 |
| CN(C)CCNc1ccc(CN(CC2CC2)C(=O)c2ccc(S(=O)(=O)Nc3ccccc3)cc2)nc1 [Compound 78, N-(Cyclopropylmethyl)-N-[[5-[2-(dimethylamino)ethylamino]-2-pyridyl]methyl]-4-(phenylsulfamoyl)benzamide] | – | – | 23 | 31 | – | – | – | – |
| CCN(Cc1ccc(NCCO)cn1)C(=O)c1ccc(S(=O)(=O)Nc2ccccc2)cc1 [Compound 80, N-Ethyl-N-[[5-(2-hydroxyethylamino)-2-pyridyl]methyl]-4-(phenylsulfamoyl)benzamide] | – | – | 12 | 51 | – | – | – | – |
